Source: ChEMBL document CHEMBL4411296, “Design and development of Isatin-triazole hydrazones as potential inhibitors of microtubule affinity-regulating kinase 4 for the therapeutic management of cell proliferation and metastasis” (Eur J Med Chem, 2019)

Tests used:
Type in all cases: functional
CAKI-1 = assay: Growth inhibition of human Caki1 cells assessed as cell growth at 10 uM after 48 hrs by sulforhodamine B assay relative to control; settings: CAKI-1, 48 h, read-out: Activity
HCT-15 = assay: Growth inhibition of human HCT15 cells assessed as cell growth at 10 uM after 48 hrs by sulforhodamine B assay relative to control; settings: HCT-15, 48 h, read-out: Activity
OVCAR-8 = assay: Growth inhibition of human OVCAR8 cells assessed as cell growth at 10 uM after 48 hrs by sulforhodamine B assay relative to control; settings: OVCAR-8, 48 h, read-out: Activity
UACC-257 = assay: Growth inhibition of human UACC257 cells assessed as cell growth at 10 uM after 48 hrs by sulforhodamine B assay relative to control; settings: UACC-257, 48 h, read-out: Activity
UACC-62 = assay: Growth inhibition of human UACC62 cells assessed as cell growth at 10 uM after 48 hrs by sulforhodamine B assay relative to control; settings: UACC-62, 48 h, read-out: Activity
LOX IMVI = assay: Growth inhibition of human LOXIMVI cells assessed as cell growth at 10 uM after 48 hrs by sulforhodamine B assay relative to control; settings: read-out: Activity
SF-268 = assay: Growth inhibition of human SF268 cells assessed as cell growth at 10 uM after 48 hrs by sulforhodamine B assay relative to control; settings: SF-268, 48 h, read-out: Activity
HL-60(TB) = assay: Growth inhibition of human HL-60(TB) cells assessed as cell growth at 10 uM after 48 hrs by sulforhodamine B assay relative to control; settings: HL-60, 48 h, read-out: Activity
SN12C = assay: Growth inhibition of human SN12C cells assessed as cell growth at 10 uM after 48 hrs by sulforhodamine B assay relative to control; settings: read-out: Activity
SW-620 = assay: Growth inhibition of human SW620 cells assessed as cell growth at 10 uM after 48 hrs by sulforhodamine B assay relative to control; settings: SW-620, 48 h, read-out: Activity
A549 = assay: Growth inhibition of human A549/ATCC cells assessed as cell growth at 10 uM after 48 hrs by sulforhodamine B assay relative to control; settings: A549, 48 h, read-out: Activity
A498 = assay: Growth inhibition of human A498 cells assessed as cell growth at 10 uM after 48 hrs by sulforhodamine B assay relative to control; settings: A498, 48 h, read-out: Activity
HCT-116 = assay: Growth inhibition of human HCT116 cells assessed as cell growth at 10 uM after 48 hrs by sulforhodamine B assay relative to control; settings: HCT-116, 48 h, read-out: Activity
Malme-3M = assay: Growth inhibition of human MALME-3M cells assessed as cell growth at 10 uM after 48 hrs by sulforhodamine B assay relative to control; settings: read-out: Activity
OVCAR-4 = assay: Growth inhibition of human OVCAR4 cells assessed as cell growth at 10 uM after 48 hrs by sulforhodamine B assay relative to control; settings: OVCAR-4, 48 h, read-out: Activity
SR = assay: Growth inhibition of human SR cells assessed as cell growth at 10 uM after 48 hrs by sulforhodamine B assay relative to control; settings: read-out: Activity
OVCAR-3 = assay: Growth inhibition of human OVCAR3 cells assessed as cell growth at 10 uM after 48 hrs by sulforhodamine B assay relative to control; settings: OVCAR-3, 48 h, read-out: Activity
SF-539 = assay: Growth inhibition of human SF539 cells assessed as cell growth at 10 uM after 48 hrs by sulforhodamine B assay relative to control; settings: SF-539, 48 h, read-out: Activity
SK-MEL-5 = assay: Growth inhibition of human SK-MEL-5 cells assessed as cell growth at 10 uM after 48 hrs by sulforhodamine B assay relative to control; settings: SK-MEL-5, 48 h, read-out: Activity
KM12 = assay: Growth inhibition of human KM12 cells assessed as cell growth at 10 uM after 48 hrs by sulforhodamine B assay relative to control; settings: KM12, 48 h, read-out: Activity
NCI-H460 = assay: Growth inhibition of human NCI-H460 cells assessed as cell growth at 10 uM after 48 hrs by sulforhodamine B assay relative to control; settings: NCI-H460, 48 h, read-out: Activity
K562 = assay: Growth inhibition of human K562 cells assessed as cell growth at 10 uM after 48 hrs by sulforhodamine B assay relative to control; settings: K562, 48 h, read-out: Activity
RPMI-8226 = assay: Growth inhibition of human RPMI8226 cells assessed as cell growth at 10 uM after 48 hrs by sulforhodamine B assay relative to control; settings: RPMI-8226, 48 h, read-out: Activity
MDA-MB-435 = assay: Growth inhibition of human MDA-MB-435 cells assessed as cell growth at 10 uM after 48 hrs by sulforhodamine B assay relative to control; settings: MDA-MB-435, 48 h, read-out: Activity
SF-295 = assay: Growth inhibition of human SF295 cells assessed as cell growth at 10 uM after 48 hrs by sulforhodamine B assay relative to control; settings: SF-295, 48 h, read-out: Activity
OVCAR-5 = assay: Growth inhibition of human OVCAR5 cells assessed as cell growth at 10 uM after 48 hrs by sulforhodamine B assay relative to control; settings: OVCAR-5, 48 h, read-out: Activity

COc1ccc(Cn2cc(C(=O)N/N=C3/C(=O)Nc4c(Cl)cccc43)nn2)cc1
growth at 10 µM (CAKI-1): 94.4% | growth at 10 µM (HCT-15): 107% | growth at 10 µM (OVCAR-8): 97.4% | growth at 10 µM (UACC-257): 92.9% | growth at 10 µM (UACC-62): 102% | growth at 10 µM (LOX IMVI): 93.8% | growth at 10 µM (SF-268): 94.7% | growth at 10 µM (HL-60(TB)): 97.3% | growth at 10 µM (SN12C): 95.8% | growth at 10 µM (SW-620): 99.7% | growth at 10 µM (A549): 102% | growth at 10 µM (A498): 93.8% | growth at 10 µM (HCT-116): 91.6% | growth at 10 µM (Malme-3M): 99.7% | growth at 10 µM (OVCAR-4): 104% | growth at 10 µM (SR): 80.3% | growth at 10 µM (OVCAR-3): 113% | growth at 10 µM (SF-539): 108% | growth at 10 µM (SK-MEL-5): 101% | growth at 10 µM (KM12): 107% | growth at 10 µM (NCI-H460): 99.7% | growth at 10 µM (K562): 89.2% | growth at 10 µM (RPMI-8226): 106% | growth at 10 µM (MDA-MB-435): 101% | growth at 10 µM (SF-295): 109% | growth at 10 µM (OVCAR-5): 123%

COc1ccc(Cn2cc(C(=O)N/N=C3/C(=O)Nc4ccc(Cl)cc43)nn2)cc1
growth at 10 µM (CAKI-1): 101% | growth at 10 µM (HCT-15): 109% | growth at 10 µM (OVCAR-8): 105% | growth at 10 µM (UACC-257): 113% | growth at 10 µM (UACC-62): 101% | growth at 10 µM (LOX IMVI): 108% | growth at 10 µM (SF-268): 98.9% | growth at 10 µM (HL-60(TB)): 93.2% | growth at 10 µM (SN12C): 101% | growth at 10 µM (SW-620): 99.7% | growth at 10 µM (A549): 103% | growth at 10 µM (A498): 96.6% | growth at 10 µM (HCT-116): 107% | growth at 10 µM (Malme-3M): 95% | growth at 10 µM (OVCAR-4): 100% | growth at 10 µM (SR): 80.6% | growth at 10 µM (OVCAR-3): 109% | growth at 10 µM (SF-539): 106% | growth at 10 µM (SK-MEL-5): 96.7% | growth at 10 µM (KM12): 97.7% | growth at 10 µM (NCI-H460): 102% | growth at 10 µM (K562): 91.2% | growth at 10 µM (RPMI-8226): 109% | growth at 10 µM (MDA-MB-435): 104% | growth at 10 µM (SF-295): 108% | growth at 10 µM (OVCAR-5): 114%

COc1ccc(Cn2cc(C(=O)N/N=C3/C(=O)Nc4ccc(F)c(Cl)c43)nn2)cc1
growth at 10 µM (CAKI-1): 96.8% | growth at 10 µM (HCT-15): 113% | growth at 10 µM (OVCAR-8): 99.2% | growth at 10 µM (UACC-257): 100% | growth at 10 µM (UACC-62): 108% | growth at 10 µM (LOX IMVI): 100% | growth at 10 µM (SF-268): 99.4% | growth at 10 µM (HL-60(TB)): 78.7% | growth at 10 µM (SN12C): 103% | growth at 10 µM (SW-620): 106% | growth at 10 µM (A549): 98% | growth at 10 µM (A498): 91.3% | growth at 10 µM (HCT-116): 109% | growth at 10 µM (Malme-3M): 103% | growth at 10 µM (OVCAR-4): 104% | growth at 10 µM (SR): 99.5% | growth at 10 µM (OVCAR-3): 105% | growth at 10 µM (SF-539): 111% | growth at 10 µM (SK-MEL-5): 99.9% | growth at 10 µM (KM12): 101% | growth at 10 µM (NCI-H460): 108% | growth at 10 µM (K562): 90.8% | growth at 10 µM (RPMI-8226): 116% | growth at 10 µM (MDA-MB-435): 99.3% | growth at 10 µM (OVCAR-5): 122%
